Results reported in patent US20260248963A1, “COMPOSITIONS FOR TREATING CANCER WITH KRAS MUTATIONS AND USES THEREOF” (AADIGEN, LLC, priority 2023, published 2026).

Tests used:
Assay type in all cases: cell-based
[1] = tested on: MTRX-1133 resistant ASPC-1 cells; assay: Cell growth inhibition assay, MTRX-1133 resistant ASPC-1
Method: (§1) To identify mutations or regulatory mechanisms that would confer acquired resistance to KRAS^G12D inhibitor MTRX1133, ASPC-1 and PANC-1 cells harboring KRAS G12D were exposed to increasing concentrations of MTRX-1133 (up to 20 μM). […] Clones resistant to KRAS^G12D inhibitor were generated during the course of the treatment.
(§2) ADGN-123 nanoparticle corresponds to gRNA35A5 sgRNA/Cas9 mRNA (1/1 molar ratio) associated with ADGN peptide (ADGN-106-Hydro3 peptide or ADGN-108-R9) at molar ratio 20/1 (peptide/nucleic acid). ADGN-123 nanoparticles were evaluated on the three stable MTRX-1133 resistant PANC-1 clones and two ASPC-1 clones. PANC-1-C1, PANC-1-C2, PANC-1-C3, ASPC-1-C1 and ASPC-1-C2. Cells were cultured in 96-well plate format and treated with free mRNACas9-gRNA, or ADGN-123 (ADGN/mRNACas9-gRNA) complex (from 0.1-10 μM) on day 1. Cell proliferation was analyzed over a period of 5 days using CellTiter Glow kits on GlowMax (Promega) and cytotoxicity was analyzed at 72 hr after treatment using CellTiter Glow or MTT assays kits.

[2] = tested on: parental ASPC-1 cells harboring KRAS G12D; assay: Growth suppression of parental ASPC-1 cells
Method: as §1

[3] = tested on: parental PANC-1 cells harboring KRAS G12D; assay: Growth suppression of parental PANC-1 cells
Method: as §1

[4] = tested on: MTRX-1133 resistant PANC-1 cells; assay: Cell growth inhibition assay, MTRX-1133 resistant PANC-1
Method: as §1, §2

## C#Cc1c(F)ccc2cc(O)cc(-c3ncc4c(N5CC6CCC(C5)N6)nc(OC[C@@]56CCCN5C[C@H](F)C6)nc4c3F)c12 [MTRX-1133]
[1]
  IC50: 2.08 ± 0.203 µM
[2]
  Lowest concentration that suppressed the growth of parental cells: 100 nM
[3]
  Lowest concentration that suppressed the growth of parental cells: 100 nM
[4]
  IC50: 4.75 ± 0.212 µM
